Like-named read-outs stand apart in the source and are kept apart here.
Assays:
[1] = reference potential values of Trx and GSH for comparison; cited from earlier work
in vitro [2] = settings: human
Experimental: (§6) For cytotoxicity analysis, human aortic endothelial cells (HAEC) and smooth muscle cells (HASMC) were seeded in a 96-well culture plate at density of 4000 cells/well in a final volume of 100 μL. Cells were cultured for 24 h and serum-starved for an additional 18 h. Test compounds were serially diluted with EBM-2 culture medium, added to the plate at 100 μL/well, and further incubated for 24 h. The number of viable cells was measured using the WST-1 cell viability assay kit (Roche Diagnostics, USA). Cell number was expressed as absorbance values at 450 nm after subtracting the turbidity value at 600 nm. The absorbance values from three replicate wells were averaged.
(§7) After treatment with ascending concentrations of each compound, the concentration of test compound corresponding to 50% cell viability (CC50) was measured.

in vitro [3] = settings: human; remark: listed apart in the source
Experimental: as §6, §7

in vitro [4] = experiment: in vitro
Experimental: (§8) Cytotoxicity tests were performed against vascular endothelial cells, vascular smooth muscle cells and hepatocytes. After treatment with ascending concentrations of each compound, the concentration of test compound corresponding to 50% cell viability (CC50) was measured.

[5] = tested on: Tyr 857 phosphorylation of PDGF receptor-β (PDGFRβ) in HASMC; experiment: Immunoblot of PDGF-mediated signaling in PrxII knock-down HASMC; assay type: cell-based, human; settings: HASMC depleted of PrxII expression, FIG. 2
Experimental: (§1) Cells were quickly washed in ice-cold phosphate-buffered saline (PBS) and lysed in extraction buffer containing 20 mM Hepes (pH 7.0), 1% Triton X-100, 150 mM NaCl, 10% glycerol, 1 mM EDTA, 2 mM EGTA, and 1 mM DTT, 5 mM Na3VO4, 5 mM NaF, 1 mM AEBSF, aprotinin (5 μg/mL), and leupeptin (5 μg/mL). After cen-trifugation at 12,000×g, the clarified cell extracts were used for immunoblotting. For re-blotting, the immunoblots were retrieved in a solution of 67 mM Tris (pH 6.7), 2% SDS, and 100 mM 2-mercaptoethanol at 60° C. for 30 min to remove antibodies and rinsed three times with a Tris-buffered saline (TBS) solution containing 1% Triton X-100. The retrieved membranes were subjected to new immunoblotting.
In human aortic smooth muscle cell (HASMC) and human pulmonary artery smooth muscle cell (PASMC) in which PrxII was knocked out by transfecting the PrxII siRNA, the ability of test compounds to replace the cellular function of PrxII was evaluated. That is, the efficacy of the new compounds was verified in terms of signaling pathways induced by PDGF that regulates the growth and migration of vascular smooth muscle cells in the aorta and pulmonary artery. Activation of PDGF-induced signaling pathway was analyzed by an immunoblot method using an antibody that specifically recognizes phosphorylation of Tyr 857, which is a major phosphorylation site on PDGF receptor (PDGFRβ).

[6] = tested on: yeast thioredoxin (Trx)/yeast Trx reductase (TR); experiment: Peroxidase activity assay (H2O2 reduction, NADPH oxidation); assay type: biochemical; settings: 50 μM test compound, 3 μM yeast Trx, 1.5 μM yeast TR, 250 μM NADPH, 1.2 mM H2O2, 30° C.; NADPH oxidized per minute
Experimental: Hydrogen peroxide (H2O2)-reducing peroxidase activity of compounds in present invention was performed as follows. Peroxyredoxin activity was measured in reaction mixture (200 μL volume) containing 50 mM HEPES buffer (pH 7.0), 1 mM EDTA, 250 μM NADPH, 3 μM yeast thioredoxin (Trx), 1.5 μM yeast Trx reductase (TR), 50 μM test compound, and 1.2 mM H2O2.
Reaction was initiated by adding H2O2 and the decrease in absorbance at 340 nm was measured using Agilent UV8453 spectrophotometry (Hewlett Packard, USA) at 30° C. for 12 min. Initial reaction rate is the amount of NADPH oxidized per minute calculated from slope of the linear part of curve.
The H2O2-reducing peroxidase activity of the test compounds in present invention was measured in a reaction mixture containing thioredoxin (Trx)/thioredoxin reductase (TR), respectively.

[7] = tested on: human aortic endothelial cell (HAEC); experiment: VEGF-induced proliferation assay, HAEC (PrxII siRNA); assay type: cell-based; settings: for Degree of HAEC proliferation: VEGF-A 25 ng/mL, percent of untreated control
Experimental: (§2) HAECs and PAECs were transfected with a PrxII-specific siRNA using RNAi MAX transfection reagent according to manufacturer's protocol. After 24 hours, transfected cells (3,000 cells/well) were seeded in a 96-well culture plate. At 12 h after seeding, cells were serum-starved for additional 18 h in EBM basal medium containing 0.5% FBS. Test compounds were serially diluted with the same basal medium containing 0.5% FBS, added to the cells ([…]), and incubated for 2 h. After treatment, cells were placed in fresh EBM medium containing 0.5% FBS and VEGF-A (25 ng/mL) for growth factor stimulation and further cultured for 24 h.
(§3) The degree of cell proliferation was measured using the Cell Titer-GLO kit ([…]). Data are the percent of luminescence intensity averaged from three replicate wells versus that of untreated control group.
(§4) In human aortic endothelial cell (HAEC) and human pulmonary artery endothelial cell (PAEC) in which PrxII was knocked out by transfecting the PrxII siRNA, the ability of test compounds to augment the VEGF-induced proliferation of vascular endothelial cells was evaluated. In Table 7, the degree of proliferation in the compound-treated groups is expressed as percent of the degree of proliferation in untreated control group. The effective concentrations of test compounds increasing cell proliferation by 50% (EC50) is also listed.

[8] = tested on: Tyr 1175 phosphorylation of VEGF receptor-2 (VEGFR2) in HAEC; experiment: Immunoblot of VEGF-mediated signaling in PrxII knock-down HAEC; assay type: cell-based, human; settings: HAECs depleted of PrxII expression, FIG. 5
Experimental: as §1
In human aortic endothelial cell (HAEC) and human pulmonary artery endothelial cell (PAEC) in which PrxII was knocked out by transfecting the PrxII siRNA, the ability of test compounds to replace the cellular function of PrxII was evaluated. That is, the efficacy of the new compounds was verified in terms of signaling pathways induced by VEGF that regulates the growth and migration of vascular endothelial cells in the aorta and pulmonary artery. Activation of VEGF-induced signaling pathway was analyzed by an immunoblot method using an antibody that specifically recognizes phosphorylation of Tyr 1175, which is a major phosphorylation site on VEGF receptor-2 (VEGFR2).

[9] = tested on: human pulmonary artery endothelial cell (PAEC); experiment: VEGF-induced proliferation assay, PAEC (PrxII siRNA); assay type: cell-based; settings: for Degree of PAEC proliferation: VEGF-A 25 ng/mL, percent of untreated control
Experimental: as §2, §3, §4

[10] = tested on: human pulmonary artery smooth muscle cell (PASMC); experiment: PDGF-induced proliferation assay, PASMC (PrxII siRNA); assay type: cell-based; settings: for Degree of PASMC proliferation: PDGF-BB 25 ng/mL, percent of untreated control
Experimental: as §2, with “HASMCs” for “HAECs”, “PASMCs” for “PAECs”, “SmBM” for “EBM”, “PDGF-BB” for “VEGF-A”
as §3
(§5) In human aortic smooth muscle cell (HASMC) and human pulmonary artery smooth muscle cell (PASMC) in which PrxII was knocked out by transfecting the PrxII siRNA, the ability of test compounds to inhibit the PDGF-induced proliferation of vascular smooth muscle cells was evaluated. In Table 6, the degree of proliferation in the compound-treated groups is expressed as percent of the degree of proliferation in untreated control group. The concentrations of test compounds corresponding to 50% growth inhibition (IC50) is also listed.

[11] = tested on: human aortic smooth muscle cell (HASMC); experiment: PDGF-induced proliferation assay, HASMC (PrxII siRNA); assay type: cell-based; settings: for Degree of HASMC proliferation: PDGF-BB 25 ng/mL, percent of untreated control
Experimental: as §2, with “HASMCs” for “HAECs”, “PASMCs” for “PAECs”, “SmBM” for “EBM”, “PDGF-BB” for “VEGF-A”
as §3, §5

[12] = Cytotoxicity assay (WST-1), smooth muscle cell; settings: human, human aortic smooth muscle cells (HASMC)
Experimental: as §6, §7

[13] = Cytotoxicity assay (WST-1), endothelial cell; settings: human, human aortic endothelial cells (HAEC)
Experimental: as §6, §7

[14] = Cytotoxicity test, liver cell; settings: hepatocytes
Experimental: as §8

[15] = tested on: human aortic endothelial cells (HAEC); experiment: Cytotoxicity assay (WST-1), endothelial cell; settings: read-out: Cell cytotoxicity (CC50) Endothelial cell; 24 h, concentration corresponding to 50% cell viability
Experimental: as §6, §7

[16] = tested on: human aortic smooth muscle cells (HASMC); experiment: Cytotoxicity assay (WST-1), smooth muscle cell; settings: read-out: Cell cytotoxicity (CC50) Smooth muscle cell; 24 h, concentration corresponding to 50% cell viability
Experimental: as §6, §7

[17] = Measurement of redox potential (DTT redox buffers, HPLC); assay type: physicochemical; settings: DTT(Red)/DTT(Ox) redox buffers, 3 h, 30° C., 50% reduction of test compound
Experimental: A test compound (10 mM) was diluted 20-fold with each redox buffer solution and incubated for 3 h in a 30° C. water bath. Then, compounds were analyzed by HPLC. The area of peaks corresponding to the oxidized and reduced forms of test compound based on specific retention time was calculated and plotted as percent of total peak area against the Nernst equation value (mV) at x-axis. The Nernst equation value corresponding to 50% reduction of test compound was set as the midpoint redox potential value for test compound.
The redox potential values of the test compounds were analyzed based on the potential values established in redox buffer solutions where reduced and oxidized DTT are mixed at various ratios.

hepatocytes = experiment: Cytotoxicity test, liver cell; settings: read-out: Cell cytotoxicity (CC50) Liver cell; concentration corresponding to 50% cell viability
Experimental: as §8

[18] = Homo sapiens, Endothelial cell, effective concentration increasing cell proliferation by 50%, VEGF-stimulated

## thioredoxin [Trx]
[1]
  Midpoint redox potential (E m): −270 mV

## CN1C(=O)C2(Cc3ccccc3)SSCC1C(=O)N2C (stereo not drawn) [Compound 19, 1-benzyl-6,8-dimethyl-2,3-dithia-6,8-diazabicyclo[3.2.2]nonane-7,9-dione]
In vitro [2]
  CC50: > 500 µM
In vitro [3]
  CC50: > 500 µM
In vitro [4]
  CC50: > 500 µM
[5]
  Effect on phosphorylation of Tyr 857 on PDGFR: strongly abolish the phosphorylation
[6]
  Peroxidase activity for H2O2 reduction: 5.69 nmol/min

## CN1CCN2C(=O)C3CSSC2(C1)C(=O)N3C (stereo not drawn) [Compound 23]
In vitro [2]
  CC50: > 500 µM
In vitro [4]
  CC50: 123 µM
[5]
  Effect on phosphorylation of Tyr 857 on PDGFR: strongly abolish the phosphorylation
[7]; 2.5 nM
  Degree of HAEC proliferation: 109.4%
[7]; 5 nM
  Degree of HAEC proliferation: 122.6%
[7]; 10 nM
  Degree of HAEC proliferation: 161.3%
[7]; 25 nM
  Degree of HAEC proliferation: 187.6%
[7]; 50 nM
  Degree of HAEC proliferation: 177.1%
[7]; 100 nM
  Degree of HAEC proliferation: 133.0%
[7]; [18]
  EC50: 0.00972 µM
[8]
  Effect on phosphorylation of Tyr 1175 on VEGFR2: strongly abolish the phosphorylation
[9]; 2.5 nM
  Degree of PAEC proliferation: 109.2%
[9]; 5 nM
  Degree of PAEC proliferation: 122.9%
[9]; 10 nM
  Degree of PAEC proliferation: 148.3%
[9]; 25 nM
  Degree of PAEC proliferation: 173.3%
[9]; 50 nM
  Degree of PAEC proliferation: 155.3%
[9]; 100 nM
  Degree of PAEC proliferation: 133.9%
[9]; [18]
  EC50: 0.0052 µM
[6]
  Peroxidase activity for H2O2 reduction: 8.81 nmol/min
[10]; 2.5 nM
  Degree of PASMC proliferation: 70.8%
[10]; 5 nM
  Degree of PASMC proliferation: 43.3%
[10]; 10 nM
  Degree of PASMC proliferation: 32.9%
[10]; 25 nM
  Degree of PASMC proliferation: 14.6%
[10]; 50 nM
  Degree of PASMC proliferation: 3.2%
[10]; 100 nM
  Degree of PASMC proliferation: 0.0%
[10]; Homo sapiens, PASMC, 50% growth inhibition, PDGF-stimulated
  IC50: 0.00476 µM
[11]; 2.5 nM
  Degree of HASMC proliferation: 89.8%
[11]; 5 nM
  Degree of HASMC proliferation: 54.3%
[11]; 10 nM
  Degree of HASMC proliferation: 34.4%
[11]; 25 nM
  Degree of HASMC proliferation: 20.4%
[11]; Homo sapiens, HASMC, 50% growth inhibition, PDGF-stimulated
  IC50: 0.00685 µM

## CN1C(=O)C2CSSC1(C)C(=O)N2Cc1cccs1 (stereo not drawn) [Compound 14, 1,8-dimethyl-6-(thiophen-2-ylmethyl)-2,3-dithia-6,8-diazabicyclo[3.2.2]nonane-7,9-dione]
[12]
  CC50 at 24 h: > 500 µM
[6]
  Peroxidase activity for H2O2 reduction: 4.78 nmol/min

## CN1C(=O)C2CSSC1(C)C(=O)N2Cc1nc2ccccc2s1 (stereo not drawn) [Compound 15, 6-(benzo[d]thiazol-2-ylmethyl)-1,8-dimethyl-2,3-dithia-6,8-diazabicyclo[3.2.2]nonane-7,9-dione]
[13]
  CC50 at 24 h: 114 µM
[12]
  CC50 at 24 h: 98.5 µM
[14]
  CC50: 157 µM

## N[C@@H](CCC(=O)N[C@@H](CS)C(=O)NCC(=O)O)C(=O)O [GSH]
[1]
  Midpoint redox potential (E m): −240 mV

## O=C1C2CSSC3(CCCN13)C(=O)N2Cc1ccccc1 (stereo not drawn) [Compound 7, 11-benzyltetrahydro-5H,7H-4,9a-(epiminomethano)pyrrolo[2,1-c][1,2,4]dithiazepine-5,10-dione]
[15]
  CC50: > 500 µM
[16]
  CC50: > 500 µM
[17]
  Midpoint redox potential (E m): −300.98 mV
hepatocytes
  CC50: > 500 µM
[6]
  Peroxidase activity for H2O2 reduction: 3.83 nmol/min

From patent US20260008784A1 (VASTHERA CO., LTD., priority 2022, published 2026)
